Converted amounts (≈) assume the structure as drawn. Read-outs that look alike come from different tables or passages of the source.
Tests used:
Format in all cases: cell-based
Strep. fec. MGH 2 = assay: In vitro minimal inhibitory concentration, Strep. fec. MGH 2
E. Coli. Vogel = assay: In vitro minimal inhibitory concentration, E. Coli. Vogel; conditions: for MIC: Escherichia coli
Pseudomonas BRK 12-4-4 = assay: In vitro minimal inhibitory concentration, Pseudomonas BRK 12-4-4; conditions: for MIC: BRK1244
Entero Cloac. IM 11 = assay: In vitro minimal inhibitory concentration, Entero Cloac. IM 11
E. Coli. Brig = assay: In vitro minimal inhibitory concentration, E. Coli. Brig; conditions: for MIC: Escherichia coli
Pseudomonas UI 18 = assay: In vitro minimal inhibitory concentration, Pseudomonas UI 18; conditions: for MIC: UI18
Serr. Mar. IMM 16 = assay: In vitro minimal inhibitory concentration, Serr. Mar. IMM 16
Klebs. Pneum. MGH 2 = assay: In vitro minimal inhibitory concentration, Klebs. Pneum. MGH 2
Pseudomonas #28 = assay: In vitro minimal inhibitory concentration, Pseudomonas #28; conditions: for MIC: read-out: Minimal Inhibitory Concentration
Prot Vulg. = assay: In vitro minimal inhibitory concentration, Prot Vulg.
Staph S 18713 = assay: In vitro minimal inhibitory concentration, Staph S 18713
Staph UC76 = assay: In vitro minimal inhibitory concentration, Staph UC76

Compound | MIC (Strep. fec. MGH 2) | MIC (E. Coli. Vogel) | MIC (Pseudomonas BRK 12-4-4) | MIC (Entero Cloac. IM 11) | MIC (E. Coli. Brig) | MIC (Pseudomonas UI 18) | MIC (Serr. Mar. IMM 16) | MIC (Klebs. Pneum. MGH 2) | MIC (Pseudomonas #28; Pseudomonas #28, in vitro) | MIC (Prot Vulg.) | MIC (Staph S 18713) | MIC (Staph UC76) | also measured
CC(=O)NCCCCC(NC(C)=O)C(=O)Nc1ccc(-c2ccc(C(=O)N[C@@H](C(=O)NC3C(=O)N4C(C(=O)O)=C(CSc5nnnn5C)CSC34)c3ccccc3)c(=O)[nH]2)cc1 (mixture of isomers) [Example 26, N-[6-[4-(N,N'-Diacetyl-DL-lysylamino)phenyl)-1,2-dihydro-2-oxonicotinyl]-7-[D-2-amino-2-phenylacetamido]3-[[(1-methyl-1H-tetrazol-5-yl)thio]methyl]-3-cephem-4-carboxylic acid] | 50 µg/mL | 1.6 µg/mL | 12.5 µg/mL | 6.3 µg/mL | 12.5 µg/mL | 12.5 µg/mL | 50 µg/mL | 1.6 µg/mL | 12.5 µg/mL | 25 µg/mL | 6.3 µg/mL | 1.6 µg/mL | 
CC(=O)NCCCCC(NC(C)=O)C(=O)Nc1ccc(-c2ccc(C(=O)N[C@@H](C(=O)NC3C(=O)N4C(C(=O)O)=C(COC(C)=O)CSC34)c3ccccc3)c(=O)[nH]2)cc1 (mixture of isomers) [Example 27, N-[6-[4-(N,N'-Diacetyl-DL-lysylamino)phenyl]-1,2-dihydro-2-oxonicotinyl]-7-[D-2-amino-2-phenylacetamido]-3-acetoxymethyl-3-cephem-4-carboxylic acid] | 25 µg/mL | 3.1 µg/mL | 12.5 µg/mL | 12.5 µg/mL | 25 µg/mL | 6.3 µg/mL | > 50 µg/mL | 6.3 µg/mL | 3.1 µg/mL | 50 µg/mL | 12.5 µg/mL | 1.6 µg/mL | 
Cn1nnnc1SCC1=C(C(=O)O)N2C(=O)C(NC(=O)[C@H](NC(=O)c3ccc(-c4ccc(NC(=O)[C@@H]5CCC(=O)N5)cc4)[nH]c3=O)c3ccccc3)C2SC1 (stereo partly drawn) [Example 7, N-[6-[4-(L-Pyroglutamylamino)phenyl]-1,2-dihydro-2-oxonicotinyl]-7-[D-2-amino-2-phenylacetamido]-3-[[(1-methyl-1H-tetrazol-5-yl)thio]methyl]-3-cephem-4-carboxylic acid] | 12.5 µg/mL (≈ 15.9 µM) | 0.8 µg/mL (≈ 1.02 µM) | 6.3 µg/mL (≈ 8.03 µM) | 3.1 µg/mL (≈ 3.95 µM) | 3.1 µg/mL (≈ 3.95 µM) | 6.3 µg/mL (≈ 8.03 µM) | 12.5 µg/mL (≈ 15.9 µM) | 1.6 µg/mL (≈ 2.04 µM) | 6.3 µg/mL (≈ 8.03 µM) | 12.5 µg/mL (≈ 15.9 µM) | 3.1 µg/mL (≈ 3.95 µM) | 0.4 µg/mL (≈ 0.51 µM) | 
CC(=O)NC(C)(C)C(=O)Nc1ccc(-c2ccc(C(=O)N[C@@H](C(=O)NC3C(=O)N4C(C(=O)O)=C(COC(C)=O)CSC34)c3ccccc3)c(=O)[nH]2)cc1 (stereo partly drawn) [Example 11, N-[6-[4-(N-Acetyl-alpha-aminoisobutyrylamino)phenyl]-1,2-dihydro-2-oxonicotinyl]-7-[D-2-amino-2-phenylacetamido]-3-acetoxymethyl-3-cephem-4-carboxylicacid] | 25 µg/mL (≈ 33.6 µM) | 3.1 µg/mL (≈ 4.16 µM) | 6.3 µg/mL (≈ 8.46 µM) | 12.5 µg/mL (≈ 16.8 µM) | 12.5 µg/mL (≈ 16.8 µM) | 6.3 µg/mL (≈ 8.46 µM) | 50 µg/mL (≈ 67.1 µM) | 12.5 µg/mL (≈ 16.8 µM) | 3.1 µg/mL (≈ 4.16 µM) | 12.5 µg/mL (≈ 16.8 µM) | 3.1 µg/mL (≈ 4.16 µM) | 0.4 µg/mL (≈ 0.537 µM) | 
CC(=O)OCC1=C(C(=O)O)N2C(=O)C(NC(=O)[C@H](NC(=O)c3ccc(-c4ccc(NC(=O)[C@@H](C)N)cc4)[nH]c3=O)c3ccccc3)C2SC1 (stereo partly drawn) [Example 29, N-[6-[4-(D-Alanylamino)phenyl]-1,2-dihydro-2-oxonicotinyl]-7-[D-2-amino-2-phenylacetamido]-3-acetoxymethyl-3-cephem-4-carboxylic acid] |  |  |  |  |  |  |  |  |  |  |  |  | Minimal Inhibitory Concentration (Strep. fec. MGH 2): 12.5 µg/mL; Minimal Inhibitory Concentration (E. Coli. Vogel): 1.6 µg/mL; Minimal Inhibitory Concentration (Pseudomonas BRK 12-4-4): 1.6 µg/mL; Minimal Inhibitory Concentration (Entero Cloac. IM 11): 12.5 µg/mL; Minimal Inhibitory Concentration (E. Coli. Brig): 6.3 µg/mL; Minimal Inhibitory Concentration (Pseudomonas UI 18): 1.6 µg/mL; Minimal Inhibitory Concentration (Serr. Mar. IMM 16): 25 µg/mL; Minimal Inhibitory Concentration (Klebs. Pneum. MGH 2): 6.3 µg/mL; Minimal Inhibitory Concentration (Pseudomonas #28; Pseudomonas #28, in vitro): 1.6 µg/mL; Minimal Inhibitory Concentration (Prot Vulg.): 6.3 µg/mL; Minimal Inhibitory Concentration (Staph S 18713): 1.6 µg/mL; Minimal Inhibitory Concentration (Staph UC76): 0.4 µg/mL
CC(=O)OCC1=C(C(=O)O)N2C(=O)C(NC(=O)[C@H](NC(=O)c3ccc(-c4ccc(NC(=O)[C@@H]5CCCN5C(C)=O)cc4)[nH]c3=O)c3ccccc3)C2SC1 (stereo partly drawn) [Example 12, N-[6-[4-(N-Acetyl-L-prolylamino)phenyl]-1,2-dihydro-2-oxonicotinyl]-7-[D-2-amino-2-phenylacetamido]-3-acetoxymethyl-3-cephem-4-carboxylic acid] | 12.5 µg/mL (≈ 16.5 µM) | 3.1 µg/mL (≈ 4.1 µM) | 12.5 µg/mL (≈ 16.5 µM) | 12.5 µg/mL (≈ 16.5 µM) | 6.3 µg/mL (≈ 8.32 µM) | 6.3 µg/mL (≈ 8.32 µM) | 50 µg/mL (≈ 66.1 µM) | 6.3 µg/mL (≈ 8.32 µM) | 6.3 µg/mL (≈ 8.32 µM) | 25 µg/mL (≈ 33 µM) | 3.1 µg/mL (≈ 4.1 µM) | 0.8 µg/mL (≈ 1.06 µM) | 
CC(=O)N[C@H](C)C(=O)Nc1ccc(-c2ccc(C(=O)N[C@@H](C(=O)NC3C(=O)N4C(C(=O)O)=C(CSc5nnnn5CCC(=O)O)CSC34)c3ccccc3)c(=O)[nH]2)cc1 (stereo partly drawn) [Example 41] | 50 µg/mL (≈ 59.2 µM) | 0.8 µg/mL (≈ 0.947 µM) | 12.5 µg/mL (≈ 14.8 µM) | 6.3 µg/mL (≈ 7.46 µM) | 6.3 µg/mL (≈ 7.46 µM) | 12.5 µg/mL (≈ 14.8 µM) | 12.5 µg/mL (≈ 14.8 µM) | 1.6 µg/mL (≈ 1.89 µM) | 6.3 µg/mL (≈ 7.46 µM) | 3.1 µg/mL (≈ 3.67 µM) | 12.5 µg/mL (≈ 14.8 µM) | 3.1 µg/mL (≈ 3.67 µM) | 
CC(=O)N[C@@H](CCC(N)=O)C(=O)Nc1ccc(-c2ccc(C(=O)N[C@@H](C(=O)NC3C(=O)N4C(C(=O)O)=C(CSc5nnnn5CS(=O)(=O)O)CSC34)c3ccccc3)c(=O)[nH]2)cc1 (stereo partly drawn) [Example 42, N-[6-[4-(N-Acetyl-L-glutaminylamino)phenyl]-1,2-dihydro-2-oxonicotinyl]-7-[D-2-amino-2-phenylacetamido]-3-[[(1-sulfomethyl-1H-tetrazol-5-yl)thio]methyl]-3-cephem-4-carboxylic acid] | > 50 µg/mL | 0.8 µg/mL (≈ 0.866 µM) | 6.3 µg/mL (≈ 6.82 µM) | 6.3 µg/mL (≈ 6.82 µM) | 6.3 µg/mL (≈ 6.82 µM) | 6.3 µg/mL (≈ 6.82 µM) | 12.5 µg/mL (≈ 13.5 µM) | 3.1 µg/mL (≈ 3.36 µM) |  | 3.1 µg/mL (≈ 3.36 µM) | 12.5 µg/mL (≈ 13.5 µM) | 6.3 µg/mL (≈ 6.82 µM) | MIC (Pseudomonas #28; Pseudomonas): 12.5 µg/mL (≈ 13.5 µM)
CC(=O)N[C@H](C)C(=O)Nc1ccc(-c2ccc(C(=O)N[C@@H](C(=O)NC3C(=O)N4C(C(=O)O)=C(CSc5nnnn5C)CSC34)c3ccccc3)c(=O)[nH]2)cc1 (stereo partly drawn) [Example 19, N-[6-[4-(N-Acetyl-D-alanylamino)phenyl]-1,2-dihydro-2-oxonicotinyl]-7-[D-2-amino-2-phenylacetamido]-3-[[(1-methyl-1H-tetrazol-5-yl)thio]methyl]-3-cephem-4-carboxylic acid] | 25 µg/mL (≈ 31.8 µM) | 0.8 µg/mL (≈ 1.02 µM) | 12.5 µg/mL (≈ 15.9 µM) | 12.5 µg/mL (≈ 15.9 µM) | 6.3 µg/mL (≈ 8.01 µM) | 6.3 µg/mL (≈ 8.01 µM) | 25 µg/mL (≈ 31.8 µM) | 3.1 µg/mL (≈ 3.94 µM) | 6.3 µg/mL (≈ 8.01 µM) | 12.5 µg/mL (≈ 15.9 µM) | 6.3 µg/mL (≈ 8.01 µM) | 0.8 µg/mL (≈ 1.02 µM) | 
CC(=O)N[C@H](C)C(=O)Nc1cccc(-c2ccc(C(=O)N[C@@H](C(=O)NC3C(=O)N4C(C(=O)O)=C(COC(C)=O)CSC34)c3ccccc3)c(=O)[nH]2)c1 (stereo partly drawn) [Example 28] | 25 µg/mL (≈ 34.2 µM) | 12.5 µg/mL (≈ 17.1 µM) | 25 µg/mL (≈ 34.2 µM) | 50 µg/mL (≈ 68.4 µM) | 25 µg/mL (≈ 34.2 µM) | 12.5 µg/mL (≈ 17.1 µM) | > 50 µg/mL | 25 µg/mL (≈ 34.2 µM) | 12.5 µg/mL (≈ 17.1 µM) | 50 µg/mL (≈ 68.4 µM) | 1.6 µg/mL (≈ 2.19 µM) | 1.6 µg/mL (≈ 2.19 µM) | 

— patent US4311698A, “Aminoacid derivatives of cephalosporin compounds” (priority 1980, dated 1982)
